Data on 3 molecules can be found in US20060265028A1, “Hair growth” (QLT INC., priority 2003, published 2006).

A short description of data set [1]: Safety: monitoring all adverse events during and after the PDT treatment. Format: in vivo, human. The settings on record: single topical QLT0074 ointment 0.2% w/w plus 50 or 75 J/cm^2 red light; 10 subjects. How it is done:
A total of 10 subjects were treated. All subjects were human males over 18 years of age and had type II or III Vertex alopecia, rated according to the modified Hamilton-Norwood scale.
All subjects received a single application of topical QLT0074 ointment 0.2% weight in weight (w/w) to two of three circular test sites on the vertex area of the scalp. The amount of ointment applied to each test site was approximately 224 mg (about 0.44mg of photosensitizer per test site). After 2 hours the excess drug was removed and red light (LED's—690nm) was administered to two of the three sites. The other test site served as a control with no drug or light administration.
Two light dose cohorts (50 and 75 J/cm^2) were investigated with each cohort having 5 subjects.
Safety was assessed by monitoring all adverse events during and after the treatment.

Data set [2] relates to human males with type II or III Vertex alopecia. The data set can be described thus: Terminal hair counts 3 months after single topical PDT treatment, compared to baseline. It is filed as in vivo. The following applies: 3 months after treatment vs baseline, 5 subjects. An excerpt:
As used herein, the term “hair growth” refers to an increase in number of terminal hairs present. Terminal hair counts can be conducted in a number of ways. For example, the terminal hair can be counted by trained and validated technicians who perform a computer-assisted count on macrophotographs. In brief, a target area on the scalp is chosen, the hair clipped and the scalp permanently marked with a single dot tattoo in the center in order to facilitate the exact positioning at each subsequent photo session. The macrophotography is performed using a preset camera with a macro lens and a stand that provides a constant reproduction ratio and electronic flashes that reproducibly illuminate the area to photograph. The images are taken in triplicate, centering the camera using the tattoo and the color slide films are processed at a central facility. The quality of the images is assessed and large transparencies are made of the best images. The terminal hairs on the target circle of the transparencies are then counted by the trained technicians.
A total of 10 subjects were treated. All subjects were human males over 18 years of age and had type II or III Vertex alopecia, rated according to the modified Hamilton-Norwood scale. […]
The efficacy was assessed by hair counts 3 months after the treatment and compared to baseline counts.

For data set [3] the following is noted: topical 0.5% hematoporphyrin and UVA three times a week for eight weeks; first week of treatment; cited from earlier work.
Data set [4] concerns alopecia areata. The following applies: cited from earlier work.

With `C=Cc1c(C)c2cc3nc(cc4[nH]c(cc5nc(cc1[nH]2)C(C)=C5CCC(=O)OCCO)c(CCC(=O)OCCO)c4C)[C@@]1(C)C3=CC=C(C(=O)OC)[C@H]1C(=O)OC` [QLT0074], the serious adverse events result in data set [1] is recorded as “No serious adverse events were reported”. The “% change in terminal hair count” value in data set [2] (50 J/cm^2 red light (690nm) 2 hours after topical QLT0074 ointment 0.2% w/w) was “+8%”; in data set [2] (75 J/cm^2 red light (690nm) 2 hours after topical QLT0074 ointment 0.2% w/w) it was “+4%”.
Consider `CC1=C(CCC(=O)O)c2cc3[nH]c(cc4nc(cc5[nH]c(cc1n2)c(C)c5C(C)O)C(C)=C4C(C)O)c(C)c3CCC(=O)O` (stereo not drawn) [hematoporphyrin], for which the “skin reactions at treated sites” value in data set [3] is “significant erythema and mild scaling followed by hyperpigmentation”.
For `COc1c2occc2c(OC)c2c(=O)cc(C)oc12` [khellin], the patients treated successfully in data set [4] (2% khellin and UVA, alopecia areata) is 5 of the 10. The phototoxicity result in data set [4] (khellin and UVA) was “did not cause phototoxicity”.
